Assay results taken from ChEMBL document CHEMBL1649118, “Tissue accumulation of cephalothin in burns: a comparative study by microdialysis of subcutaneous interstitial fluid cephalothin concentrations in burn patients and healthy volunteers” (Antimicrob Agents Chemother, 2009).
Values after ≈ are worked out from the molar mass of the structure shown.

Tests used:
[1] = Fraction unbound in healthy human interstitial fluid at 1g, iv administered as 5 mins infusion by microdialysis; type: ADME, organism-based; details: in vivo
[2] = Drug level in subcutaneous interstitial fluid at burnt site of patient at 1 g, iv administered as 5 mins infusion measured after 240 min; type: ADME, organism-based; details: human, read-out: Drug uptake
[3] = Time during which concentration exceeded the 5 X MIC for Staphylococcus aureus in healthy human at 1g, iv administered as 5 mins infusion; type: functional
[4] = T>MIC in Staphylococcus aureus infected burn patient at burnt tissue site at 1g, iv administered as 5 mins infusion; type: functional
[5] = test system: Plasma; test: Fraction unbound in burn patient at 1g, iv administered as 5 mins infusion by microdialysis; type: ADME, organism-based; details: human, in vivo
[6] = test system: Plasma; test: Fraction unbound in healthy human plasma at 1g, iv administered as 5 mins infusion by microdialysis; type: ADME, organism-based; details: in vivo
[7] = T>MIC in healthy human at 1g, iv administered as 5 mins infusion; type: functional
[8] = T>MIC in Staphylococcus aureus infected burn patient at nonburnt tissue site at 1g, iv administered as 5 mins infusion; type: functional
[9] = Time during which concentration exceeded the 5 X MIC for Staphylococcus aureus infected burn patient at nonburnt tissue site at 1g, iv administered as 5 mins infusion; type: functional
[10] = Time during which concentration exceeded the 5 X MIC for Staphylococcus aureus infected burn patient at burnt tissue site at 1g, iv administered as 5 mins infusion; type: functional
[11] = test system: Staphylococcus aureus; test: Antimicrobial activity against Staphylococcus aureus; type: functional
[12] = Drug level in subcutaneous interstitial fluid at nonburnt site of patient at 1 g, iv administered as 5 mins infusion measured after 240 min; type: ADME, organism-based; details: human, read-out: Drug uptake
[13] = Drug level in subcutaneous interstitial fluid of healthy human at 1 g, iv administered as 5 mins infusion measured after 240 min; type: ADME, organism-based; details: read-out: Drug uptake
[14] = Fraction unbound in burn patient interstitial fluid at nonburn site at 1g, iv administered as 5 mins infusion by microdialysis; type: ADME, organism-based; details: human, in vivo
[15] = Fraction unbound in burn patient interstitial fluid at burn site at 1g, iv administered as 5 mins infusion by microdialysis; type: ADME, organism-based; details: human, in vivo
[16] = Plasma protein binding in burn patient at 1g, iv administered as 5 mins infusion; type: ADME, organism-based; details: human, read-out: PPB (converted)
[17] = Plasma protein binding in healthy human at 1g, iv administered as 5 mins infusion; type: ADME, organism-based; details: read-out: PPB (converted)

Question: Which Cp [1] does the source give for CC(=O)OCC1=C(C(=O)O)N2C(=O)[C@@H](NC(=O)Cc3cccs3)[C@H]2SC1 [CEPHALOTHIN] here?
Answer: The Cp was 8600 ng/mL.

Question: What about the concentration at 4 h [2] of the same compound?
Answer: The concentration at 4 h was 2840 ng/mL.

Question: What about the T [3] of the same compound?
Answer: The T was 96 min.

Question: What about the “T>MIC” value [4] of the same compound?
Answer: Its value is 285 min.

Question: What about the Cp [5] of the same compound?
Answer: Its Cp is 38700 ng/mL.

Question: What about the Cp [6] of the same compound?
Answer: Its Cp is 17600 ng/mL.

Question: And the “T>MIC” value [7]?
Answer: The value was 160 min.

Question: And the “T>MIC” value [8]?
Answer: Its value is 336 min.

Question: And the T [9]?
Answer: The T was 219 min.

Question: And the T [10]?
Answer: Its T is 191 min.

Question: And the MIC [11]?
Answer: The MIC was 0.2 µg/mL (≈ 0.504 µM).

Question: What about the concentration at 4 h [12] of the same compound?
Answer: Its concentration at 4 h is 3060 ng/mL.

Question: What about the concentration at 4 h [13] of the same compound?
Answer: The concentration at 4 h was 540 ng/mL.

Question: What about the Cp [14] of the same compound?
Answer: The Cp was 8900 ng/mL.

Question: And the Cp [15]?
Answer: Its Cp is 14500 ng/mL.

Question: And the fraction unbound at 5 min [16]?
Answer: The fraction unbound at 5 min was 0.42.

Question: What about the fraction unbound at 5 min [17] of the same compound?
Answer: Its fraction unbound at 5 min is 0.292.
